How the values were obtained:
[1] = Specific surface area by BET analysis (nitrogen adsorption-desorption at 77 K); assay type: physicochemical; settings: for BET surface (specific surface area): nitrogen adsorption at 77 K, 0.05-0.20 P/P0
Protocol: Specific surface area was measured by Nitrogen adsorption-desorption analyses at 77 K with a volumetric adsorption analyser (Micromeritics 3Flex physisorption apparatus). The Brunauer—Emmet—Teller (BET) method was applied in the 0.05-0.20 P /PO range to calculate the specific surface area.

[2] = Formulation study: mixing Compound A with liquid or solid acids, resulting composition and physical stability; assay type: physicochemical; settings: Compound A alone, before mixing
Protocol: In a round bottom flask, to a solution of A in anhydrous Et2O (6 mL/mmol) under argon atmosphere, the acid was added dropwise, as a pure liquid or in anhydrous Et2O (3 mL/mmol) solution. The mixture was allowed to stand for 3 h. The product was then isolated by evaporation of the solvent and was dried under vacuum.
Two different net grinding procedures were used: • Solid mixing 1: In an Eppendorf, A (200 mg, 0.5 mmol) and the acid were added. The Eppendorf was then placed in the grinding device (Retsch MM400) and allowed to stir for 90 min at 30 Hz. • Solid mixing 2: In a mortar, A (200 mg, 0.5 mmol) and acid were added and then manually grinded with a pestle.

O=C1NS(=O)(=O)c2ccccc21 [Saccharin, 1,1-dioxo-1,2-benzothiazol-3-one]
BET surface (specific surface area) ([1]; listed as Saccharin (commercial)): 9.9 m^2/g

FC(F)(F)c1ccc(-c2noc(CN3CCCC(CN4CCOCC4)C3)n2)cc1 (stereo not shown) [Compound A]
physical form of free compound [2]: oil

O=C1NS(=O)(=O)c2ccccc21 [Saccharin (after grinding), 1,1-dioxo-1,2-benzothiazol-3-one]
BET surface (specific surface area) [1]: 6.7 m^2/g | change of specific surface area (BET) ([1]; saccharin after grinding vs commercial, A-2SA vs saccharin alone after same grinding procedure): about −30%

Source: patent US12569440B2, “Solid formulation of a 1,2,4-oxadiazole derivative” (ABAXYS THERAPEUTICS, priority 2019, dated 2026)
